Assay results: patent publication US20110251203A1, “USE OF PKC INHIBITORS IN DIABETIC COMPLICATIONS” (priority 2006, published 2011)

System: transgenic (mRen-2)27 rats
Experiment: Streptozotocin-diabetic Ren-2 rat model of diabetic complications
Format: in vivo
Settings: administered i.v. at a dose of from 0.1 to 10 mg/kg
Experimental: Ren-2 rats (e.g. as disclosed in D. J. Kelly et al, Kidney Int, Vol 54, 1998, p343-352)
The effect of Compound A, B or C, on diabetic complications is tested in transgenic (mRen-2)27 rats (also called “Ren-2 rats”), model that develops hypertension and many of the structural and functional characteristics of human diabetic nephropathy when diabetes is induced by streptozotocin, resulting in a progressive disease with many of the structural, functional and molecular characteristics of human diabetic nephropathy. The progression of this disease is associated with an increase in renal and cardiac growth factors and extra cellular matrix accumulation.
The effect of the compounds of the invention on diabetic nephropathy may be studied with the Ren-2 rats model, as disclosed in D. J. Kelly et al, Diabetes, Vol 52, February 2003, p512-518: Diabetes is induced by injection of streptozotocin, 55 mg/kg. All diabetic rats receive insulin (human isophane) 2 units/day to promote body weight and reduce mortality. The experimental period continues for 16 weeks in Ren-2 rats to study advanced renal and cardiac disease. Rats are randomised to the following groups:
Group 1: non-diabetic Ren-2, no drug Group 2: non-diabetic Ren2, Compound C Group 3: non-diabetic Ren-2, Compound A Group 4: diabetic Ren-2 Group 5: diabetic Ren-2, drug Compound C, dose 1 Group 6: diabetic Ren-2, drug Compound A, dose 1 Group 7: diabetic Ren-2, drug Compound C, dose 2 Group 8: diabetic Ren-2, drug Compound A, dose 2 N=20 per group (160 rats) […]
The spatial distribution and quantitation of the immunohistochemistry by image analysis provide specific information regarding the cell type and location of disease progression. […]
The right kidney is snap frozen in liquid nitrogen and used for molecular biological experiments. Tissue and cell specific changes in expression may be quantifyed using immunohistochemistry with quantitative image analysis and real time PCR (ABI Prism 7700, Perkin Elmer Biosystems, Foster City, Calif.) with TaqMan, Such a PCR analysis is a technique well known by the one skilled in the art.

Structure (SMILES)	effect on the diabetic complications
Cc1cccc2c(C3=C(c4nc(N5CCNC6(CC6)C5)cc5ccccc45)C(=O)NC3=O)c[nH]c12 [Compound C, 3-[3-(4,7-Diaza-spiro[2,5]oct-7-yl)-isoquinolin-1-yl]-4-(7-methyl-1H-indol-3-yl)-pyrrole-2,5-dione]	beneficial effect
O=C1NC(=O)C(c2c[nH]c3ccccc23)=C1c1nc(N2CCNCC2)nc2ccccc12 [Compound B, 3-(1.H.-indol-3-yl)-4-[2-(piperazin-1-yl)-quinazolin-4-yl]-pyrrole-2,5-dione]	beneficial effect
CN1CCN(c2nc(C3=C(c4c[nH]c5ccccc45)C(=O)NC3=O)c3ccccc3n2)CC1 [Compound A, 3-(1.H.-indol-3-yl)-4-[2-(4-methyl-piperazin-1-yl)-quinazolin-4-yl]-pyrrole-2,5-dione]	beneficial effect
